“Also recorded” adds a separate entry of the source.
Assay: Clinical observations for dogs in pharmacokinetic studies
Type: in vivo, Beagle dogs
Details: for Clinical observation, R-TA / BT: 48 mg/kg
Protocol: Weight monitoring was done every week.
The dose formulation (concentration—400 mg base equivalents/ml in sesame oil+1% benzyl alcohol, unless otherwise specified) was administered via deep intramuscularly (unless otherwise specified). The injection vehicle was also dosed via deep intramuscular route (unless otherwise specified) on contralateral site of each animal at study initiation. The animals were sedated with Propofol at 6 mg/kg via IV administration. Following sedation hair was carefully removed from around the injection site and the area gently cleaned. Care will be taken to avoid irritating skin during shaving and cleaning the injection site. Then dogs will be dosed with deep IM administration. At least 2.5 cm depth from the surface into the central aspect of the quadriceps or biceps femoris muscle, by angling the needle toward the femur. If the needle hits the femur, simply draws back slightly and then inject. The dose volume will be determined by the animals' body weight collected on the morning of dosing day. For repeated administration, the injection sites may be rotated to minimize tissue injury.

[1] = dog D1502 (third dog, c6), 96 hr
[2] = dog D1502 (third dog, c6), 120 hr
[3] = dog D1502 (third dog, c6), 144 hr
[4] = dog D1502 (third dog, c6), 192 hr
[5] = dog D1502 (third dog, c6), 216 hr

In the case of `C=C1CC[C@@]2(O)C3Cc4ccc(OCOC(=O)OCCCCCCCCCC)c5c4[C@@]2(CCN3CC2CC2)[C@H]1O5` [Compound 35, (((4aS,7aS,12bS)-3-(cyclopropylmethyl)-4a-hydroxy-7-methylene-2,3,4,4a,5,6,7,7a-octahydro-1H-4,12-methanobenzofuro[3,2-e]isoquinolin-9-yl)oxy)methyl decyl carbonate], the “Clinical observation, R-TA” value (dog D1501, 24 hr) is reported as “Red spots at groin”, the “Clinical observation, R-TA” value (dog D1501, 48 hr) is reported as “Red spots at groin” and the BT (dog D1501, 72 hr) is reported as “at groin/BT: 39.1 °C”. For the same compound, the “Clinical observation, R-TA” value (dog D1501, 72 hr) was “Swelling; also recorded: Red spots”, the BT (dog D1501, 96 hr) was “at groin/BT: 39.0 °C” and the “Clinical observation, R-TA” value (dog D1501, 96 hr) was “Swelling; also recorded: Red spots”. The BT (dog D1501, 120 hr) was “at groin/BT: 39.1 °C”, the “Clinical observation, R-TA” value (dog D1501, 120 hr) was “Swelling; also recorded: Red spots” and the BT (dog D1501, 144 hr) was “groin/BT: 38.7 °C”. For the same compound, the BT (dog D1501, 192 hr) was “groin/BT: 38.2 °C”, the BT (dog D1501, 216 hr) was “groin/BT: 38.6 °C” and the “Clinical observation, R-TA” value (dog D1501, 216 hr) was “redness/Red spots at”. The BT (dog D1501, 240 hr) was “groin/BT: 38.2 °C”, the “Clinical observation, R-TA” value (dog D1501, 240 hr) was “induration” and the BT (dog D1501, 264 hr) was “groin/BT: 38.0 °C”. The “Clinical observation, R-TA” value (dog D1501, 264 hr) was “induration”, the BT (dog D1501, 288 hr) was “groin/BT: 38.4 °C” and the “Clinical observation, R-TA” value (dog D1501, 288 hr) was “induration”. For the same compound, the BT (dog D1501, […]) was “groin/BT: 38.9 °C”, the “Clinical observation, R-TA” value (dog D1501, day 13) was “induration” and the “Clinical observation, R-TA” value (dog D1501, day 14) was “induration”. For the same compound, the “Clinical observation, R-TA” value (dog D1501, day 15) was “induration”, the “Clinical observation, R-TA” value (dog D1501, day 16) was “induration” and the “Clinical observation, R-TA” value (dog D1501, day 17) was “induration”. The “Clinical observation, R-TA” value (dog D1501, day 18) was “induration”, the “Clinical observation, R-TA” value (dog D1502 (third dog, c6), 24 hr) was “Slight swelling/red” and the “Clinical observation, R-TA” value (dog D1502 (third dog, c6), 48 hr) was “Slight swelling/red”. The BT (dog D1502 (third dog, c6), 72 hr) was “leg/BT: 39.3 °C”, the BT [1] was “leg/BT: 39.3 °C” and the “Clinical observation, R-TA” value [1] was “induration and red”. For the same compound, the BT [2] was “BT: 39.4 °C”, the “Clinical observation, R-TA” value [2] was “induration and red” and the BT [3] was “BT: 39.0 °C”. For the same compound, the “Clinical observation, R-TA” value [3] was “induration and red”, the BT [4] was “at calf/BT: 39.2 °C” and the “Clinical observation, R-TA” value [4] was “Obvious swelling”. For the same compound, the BT [5] was “calf/BT: 39.2 °C”, the “Clinical observation, R-TA” value [5] was “red spot” and the BT (dog D1502 (third dog, c6), 240 hr) was “calf/BT: 38.9 °C”. The BT (dog D1502 (third dog, c6), 264 hr) was 38.7 °C, the BT (dog D1502 (third dog, c6), 288 hr) was 38.7 °C and the BT (dog D1502 (third dog, c6), […]) was “at calf/BT: 39.3 °C”. The “Clinical observation, R-TA” value (dog D1502 (third dog, c6), day 20) was “Not obvious”, the BT (dog D1502, 72 hr) was 39.6 °C and the “Clinical observation, R-TA” value (dog D1502, 72 hr) was “red”. For the same compound, the BT (dog D1502, 96 hr) was 38.9 °C, the BT (dog D1502, 120 hr) was 39.6 °C and the BT (dog D1502, 144 hr) was 38.9 °C. For the same compound, the “Clinical observation, R-TA” value (dog D1502, 144 hr) was “redness”, the BT (dog D1502, 192 hr) was “BT: 38.7 °C” and the BT (dog D1502, 216 hr) was “BT: 39.2 °C”. The BT (dog D1502, 240 hr) was “BT: 38.6 °C”, the BT (dog D1502, 264 hr) was “BT: 38.4 °C” and the BT (dog D1502, 288 hr) was “BT: 38.6 °C”. For the same compound, the BT (dog D1502, […]) was 39.9 °C.

With `C=C1CC[C@@]2(O)C3Cc4ccc(OCOC(=O)CCCCCCCCCCCCC)c5c4[C@@]2(CCN3CC2CC2)[C@H]1O5` [Compound 45, (((4aS,7aS,12bS)-3-(cyclopropylmethyl)-4a-hydroxy-7-methylene-2,3,4,4a,5,6,7,7a-octahydro-1H-4,12-methanobenzofuro[3,2-e]isoquinolin-9-yl)oxy)methyl tetradecanoate] the “Clinical observations (cell spans L-vehicle and R-TA)” value (dog D1503, 96 mg/kg, Day 1) was “Liquid feces about 20 mL”.

From patent US10544154B2, “Opioid receptor antagonist prodrugs” (Nirsum Laboratories, Inc., priority 2017, dated 2020)
